Reference: patent US20210106703A1, “RADIOIMMUNOCONJUGATES IN COMBINATION WITH OTHER DRUGS AS TREATMENT AGAINST NHL” (Nordic Nanovector ASA, priority 2017, published 2021)
Read-outs that look alike come from different tables or passages of the source.

Assays:
Assay type in all cases: cell-based, human
U-2932 cells = experiment: Real Time Glo viability screen and validation, Betalutin with PARP or cell cycle kinase inhibitors (Examples 4, 7); details: U-2932, validation screen, 0-1280 nM
SUDHL4 cells = experiment: Alamar Blue cytotoxicity study; details: for IC50: Homo sapiens; for Combination Index (Chou-Talalay): 120 h
Experimental: Cells were incubated with 0.25, 0.5, 1, 2.5 or 5 μg/ml of Humalutin in cell culture flasks and incubated at 37° C./5% CO2. After 18-20 hours cells were washed and resuspended in fresh medium. Cell bound activity after washing was measured using a calibrated gamma detector (Cobra II auto-gamma detector, Packard Instrument Company, Meriden, Conn., USA). Cell concentration and viability was also measured after washing using Guava ViaCount Cell Dispersal Reagent for Flow Cytometry (Merck GaA, Darmstadt, Germany) and measured in a Guava EasyCyte 12HT (Merck KGaA, Darmstadt, Germany) to determine how well the cells survived the incubation. Cells were seeded in 96 well plates. […]
(§1) Cells were treated with either Humalutin, venetoclax or a combination of both and seeded into 96 well-plates. At each time point after treatment, cells were incubated with Alamar Blue (Thermo Fisher, DALL1100) for 4 hours and fluorescence measurements were performed using a multiplate reader Fluoroskan ascent FL to assess cell proliferation and viability. All experiments were done in duplicates using 2 samples in each experiment. Data were normalized to the untreated controls.
Cells were incubated with either 0, 0.5 μg/ml or 1 μg/ml Humalutin and the same procedure as described before for treatment with Humalutin alone and venetoclax alone was followed.
The Chou-Talalay model was used for synergy calculations using the Compusyn software. R (goodness of fit) was calculated for the individual treatments and should be over 0.90 in in vitro culture experiments in order to use with confidence the calculated combination index (CI). The CI is an indication of synergy: 0-0.9 is considered synergy. Synergysm grading was used as described in WO2006004917A2.
(§2) Cells were incubated with 0.25, 0.5, 1, 2.5 or 5 μg/ml of Humalutin in cell culture flasks and incubated at 37° C./5% CO2. After 18-20 hours cells were washed and resuspended in fresh medium. Cell bound activity after washing was measured using a calibrated gamma detector (Cobra II auto-gamma detector, Packard Instrument Company, Meriden, Conn., USA). Cell concentration and viability were also measured after washing using Guava ViaCount Cell Dispersal Reagent for Flow Cytometry (Merck GaA, Darmstadt, Germany) and measured in a Guava EasyCyte 12HT (Merck KGaA, Darmstadt, Germany) to determine how well the cells survived the incubation. Cells were seeded in 96 well plates. Alamar blue viability measurements were performed 120 h after seeding.
Cells were incubated with either 0 (control), 0.5 μg/ml or 1 μg/ml Humalutin for 18 to 20 hours. Cells were then washed and resuspended in fresh medium.

SUDHL-6 cells = experiment: Alamar Blue cytotoxicity study; details: for Combination Index (Chou-Talalay): 120 h
Experimental: as §1, §2
Cells were incubated with either 0 (control), 0.5 μg/ml or 1 μg/ml Humalutin for 18 to 20 hours. Cells were then washed and resuspended in fresh medium. Cell bound activity after washing was measured using a calibrated gamma detector (Cobra II auto-gamma detector, Packard Instrument Company, Meriden, Conn., USA). Cell concentration and viability were also measured after washing using Guava ViaCount Cell Dispersal Reagent for Flow Cytometry (Merck GaA, Darmstadt, Germany) and measured in a Guava EasyCyte 12HT (Merck KGaA, Darmstadt, Germany) to determine how well the cells survived the incubation. […] Cytotoxic effect was measured using Alamar blue cell viability assay.
The Chou-Talalay model was used for synergy calculations using the Compusyn software. R (goodness of fit) was calculated for the individual treatments and should be over 0.90 in in vitro culture experiments in order to use the calculated combination index (CI) with confidence. The CI is an indication of synergy: 0-0.9 is considered synergy. Synergism grading was used as described in Table 13, WO2006004917A2.

[1] = tested on: CDK1 and its phosphorylations, p345-Chk1, Wee-1, Myt-1, CDK7 in Ramos cells; experiment: Protein expression by Western blot
Experimental: (§3) Protein expression was assessed in 1×10^6 Ramos, DOHH2 or Rec-1 cells/mL grown in 12-well plates and exposed for 18 h to 0 and 6 MBq/mL of ^177Lu-lilotomab. Cells were harvested at 0, 2 h, 18 h, 1 d, 2 d and 3 d of RIT. At each time point, cells were rinsed and incubated in RIPA buffer (Santa Cruz) at 4° C. for 30 minutes. Cells were centrifuged and supernatant (containing proteins) were collected. Proteins were electrophoresed through SDS-PAGE using 12% poly-acrylamide gels and electrotransferred onto nitrocellulose membranes. Blots were incubated with anti-CDK1, anti-p-CDK1(Tyr15) (clone 10A11), anti-p-CDK1(Thr14), anti-p-CDK1(Thr161), anti-CDK7, anti-Wee-1 (clone D10D2), anti-Myt-1, anti-p-CHK1 (Ser345) and anti-human GAPDH (1/1000, Cell Signaling Technologies, Leiden, The Netherlands) primary antibodies. Blot were washed and incubated with horseradish peroxidase-conjugated anti-mouse Ig (115-036-072, Jackson ImmunoResearch) or with horseradish peroxidase-conjugated anti-rabbit Ig (7074, Cell Signaling). Signal detection of immunoblots was carried out using the enhanced chemiluminescence protocol according to the manufacturer's instructions (Clarity™ Western ECL blotting substrates, 1705061, BioRad). PXi analyser (Ozyme) was used to measure levels of protein expression.

[2] = tested on: CDK1 and its phosphorylations, p345-Chk1, Wee-1, Myt-1, CDK7 in Rec-1 cells; experiment: Protein expression by Western blot
Experimental: as §3

## Nc1nc(Nc2ccc(S(N)(=O)=O)cc2)nn1C(=O)c1c(F)cccc1F [JNJ-7706621]
U-2932 cells
  Effect of monotreatment on proliferation: not evident at concentrations below 160 nM

## CC1(C)CCC(CN2CCN(c3ccc(C(=O)NS(=O)(=O)c4ccc(NCC5CCOCC5)c([N+](=O)[O-])c4)c(Oc4cnc5[nH]ccc5c4)c3)CC2)=C(c2ccc(Cl)cc2)C1 [venetoclax]
SUDHL4 cells; SU-DHL-4, read-out: IC50 at 120 h, SUDHL-4, 120 h incubation after seeding
  IC50: 2420 nM
SUDHL4 cells; SU-DHL-4, SUDHL4, 72 h incubation after seeding, read-out: IC50
  IC50: 3660 nM
SUDHL4 cells; SUDHL-4, drug 10 μM + Humalutin 0.5 μg/ml
  Combination Index (Chou-Talalay): 2.43
SUDHL4 cells; SUDHL-4, drug 10 μM + Humalutin 1 μg/ml
  Combination Index (Chou-Talalay): 0.09
SUDHL4 cells; SUDHL-4, drug 40 μM + Humalutin 0.5 μg/ml
  Combination Index (Chou-Talalay): 3.77
SUDHL4 cells; SUDHL-4, drug 40 μM + Humalutin 1 μg/ml
  Combination Index (Chou-Talalay): 0.11
SUDHL4 cells; SUDHL-4, drug 80 μM + Humalutin 0.5 μg/ml
  Combination Index (Chou-Talalay): 0.50
SUDHL4 cells; SUDHL-4, drug 80 μM + Humalutin 1 μg/ml
  Combination Index (Chou-Talalay): 0.06
SUDHL4 cells; SUDHL-4, drug 100 μM + Humalutin 0.5 μg/ml
  Combination Index (Chou-Talalay): 0.83
SUDHL4 cells; SUDHL-4, drug 100 μM + Humalutin 1 μg/ml
  Combination Index (Chou-Talalay): 0.02
SUDHL4 cells; SUDHL-4, venetoclax 0.25 + Humalutin 0.5 μg/ml
  Combination Index (Chou-Talalay): 0.01
SUDHL4 cells; SUDHL-4, venetoclax 0.25 + Humalutin 1 μg/ml
  Combination Index (Chou-Talalay): 0.06
SUDHL4 cells; SUDHL-4, venetoclax 0.5 + Humalutin 0.5 μg/ml
  Combination Index (Chou-Talalay): 0.003
SUDHL4 cells; SUDHL-4, venetoclax 0.5 + Humalutin 1 μg/ml
  Combination Index (Chou-Talalay): 0.01
SUDHL4 cells; SUDHL-4, venetoclax 1 + Humalutin 0.5 μg/ml
  Combination Index (Chou-Talalay): 0.01
SUDHL4 cells; SUDHL-4, venetoclax 1 + Humalutin 1 μg/ml
  Combination Index (Chou-Talalay): 0.09
SUDHL4 cells; SUDHL-4, venetoclax 2.5 + Humalutin 0.5 μg/ml
  Combination Index (Chou-Talalay): 0.02
SUDHL4 cells; SUDHL-4, venetoclax 2.5 + Humalutin 1 μg/ml
  Combination Index (Chou-Talalay): 0.12
SUDHL-6 cells; Homo sapiens, SU-DHL-6, read-out: IC50 at 120 h, SUDHL-6, 120 h incubation after seeding
  IC50: 1160 nM
SUDHL-6 cells; SUDHL-6, venetoclax 0.25 + Humalutin 0.5 μg/ml
  Combination Index (Chou-Talalay): 0.63
SUDHL-6 cells; SUDHL-6, venetoclax 0.25 + Humalutin 1 μg/ml
  Combination Index (Chou-Talalay): 0.82
SUDHL-6 cells; SUDHL-6, venetoclax 0.5 + Humalutin 0.5 μg/ml
  Combination Index (Chou-Talalay): 0.14
SUDHL-6 cells; SUDHL-6, venetoclax 0.5 + Humalutin 1 μg/ml
  Combination Index (Chou-Talalay): 0.28
SUDHL-6 cells; SUDHL-6, venetoclax 1 + Humalutin 0.5 μg/ml
  Combination Index (Chou-Talalay): 0.71
SUDHL-6 cells; SUDHL-6, venetoclax 1 + Humalutin 1 μg/ml
  Combination Index (Chou-Talalay): 0.41
SUDHL-6 cells; SUDHL-6, venetoclax 2.5 + Humalutin 0.5 μg/ml
  Combination Index (Chou-Talalay): 0.47
SUDHL-6 cells; SUDHL-6, venetoclax 2.5 + Humalutin 1 μg/ml
  Combination Index (Chou-Talalay): 0.41

B1: Lutetium-177 [^177Lu]-lilotomab satetraxetan (conjugate, chains of the INN, looked up)
VH: EIQLQQSGPELVKPGASVKVSCKASGYSFTDYNMYWVKQSHGKSLEWIGYIDPYNGDTTYNQKFKGKATLTVDKSSSTAFIHLNSLTSEDSAVYYCARSPYGHYAMDYWGQGTSVTVSS
VL: DIVMTQSHKLLSTSVGDRVSITCKASQDVSTAVDWYQQKPGQSPKLLINWASTRHTGVPDRFTGSGSGTDYTLTISSMQAEDLALYYCRQHYSTPFTFGSGTKLEIK
modifications: 177Lu satetraxetan chelator conjugate
[1]; 6 MBq/mL for 18 h
  Activating pThr161 CDK1 phosphorylation: transient low levels
  CDK1 level: quite stable
  Inhibitory pTyr15 and pThr14 CDK1 phosphorylations: high persistent levels
[1]; 18 h after treatment
  Expression of Myt-1: decreased
[1]; at 18-24 h
  Level of phosphorylated CHK1 (Ser345): increased
[1]; between 18 and 48 h
  Expression of Wee-1: comparable in control and treated
[2]; Rec-1
  Level of phosphorylated CHK1 (Ser345): remained stable until 18 h before progressively decreasing
[2]; Rec-1, 6 MBq/mL for 18 h
  Activating pThr161 CDK1 phosphorylation: undetectable
  CDK1 level: quite stable
[2]; Rec-1, 18 h after treatment
  Expression of Myt-1: decreased
[2]; Rec-1, between 18 and 48 h
  Expression of Wee-1: comparable in control and treated
[2]; Rec-1, compared with Ramos cells
  Levels of CDK7: stable or increased
